Reference: patent US20230123334A1, “AMINO LIPID COMPOUND, PREPARATION METHOD THEREFOR, AND APPLICATION THEREOF” (SHENZHEN SHENXIN BIOTECHNOLOGY CO., LTD., priority 2020, published 2023)

What follows are molecules tested on HEK293 cells (assay: Preliminary screening as DNA vectors, GFP transfection of HEK293 cells). Conditions: amino lipid/DOPE liposome with 75 ng plasmid DNA (psin-EGFP-IRES-Puro); number of GFP-expressing cells divided by total nuclei (Hoechst).
Type: cell-based
Procedure: Cell line: HEK293 cells (ATCC CRL-1573™)
Medium: DMEM supplemented with 10% fetal bovine serum (Invitrogen)
Mode of screening: cell transfection on 96-well plates
Detection (readout): percentage of the number of GFP fluorescent cells relative to the total number of cells (the total number of cells was measured using nucleus dye Hoechst—see FIG. 2). Lipofectamine2000 (Invitrogen) was used as positive control, according to the manufacturer's instructions.
Method: an 8-channel pipette was used for sample addition. The contents shown were for a single well of a 96-well flat plate.
1. The compound (0.01 mmol) prepared in Example 1 was dissolved in 1 mL of anhydrous ethanol. After ultrasonically dissolved, 10 μL of the resultant amino lipid solution in ethanol was taken and mixed with 5 μL of DOPE solution in ethanol (0.01 m), and then to the obtained mixture was added 35 μL of 0.2M sodium acetate buffer (pH 5.6), and 50 μL of liposome solution was prepared by vortex at a constant rotating speed for 30 s. 4 μL was taken from the 50 μL liposome solution and added to 46 μL of 0.02M sodium acetate buffer (pH 5.6), and the final liposome solution was formed by vortex at a constant rotating speed for 30 s. 5 μL was taken from the final liposome solution and mixed with 75 ng plasmid DNA (psin-EGFP-IRES-Puro, Clontech) dissolved in 5 μL of 0.02 M sodium acetate buffer, and was allowed to stay at room temperature for 30 min to form a lipid/DNA transfection complex.
2. 10 μL of the lipid/DNA transfection complex was incubated at room temperature for 30 min, followed by addition of 90 μL of fresh resuspended cells (3-5×10^4 cells) and mixing with a pipette. 100 μL of cells+lipid/DNA complex was transferred to separate wells of a 96-well culture plate immediately, and placed in an incubator containing 5% CO2 at 37° C.
3. Hoechst33258 (Invitrogen) was added at a final concentration of 0.2 μg/mL to the cells 20 to 24 hours after initial cell transfection, and cultured in darkness at 37° C. for 15 min. Afterwards, the cells were washed once with a PBS solution, and then added with medium for culture for 20 to 24 h.
4. The cells were placed in a high-throughput confocal microscope (Molecular Devices ImageXpress), and four visual fields of the image of the cells were captured for each well, and images at three laser wavelengths were captured for each sample: bright field images of cells (FIG. 2(a) and FIG. 2(b)), Hoechst-staining images showing total nuclei (FIG. 2(c) and FIG. 2(d)) and GFP images showing success in transfection with the plasmid DNA and the expression of GFP (FIG. 2(e) and FIG. 2(f)). MetaXpress software was used to separately count the cells in the Hoechst-staining images and GFP images, and then the number of cells expressing GFP was divided by the total number of nuclei to give the absolute cell transfection efficiency. The absolute transfection efficiency was calculated as follows: […]
`CCCCCCCCCCCCCCCCSc1nc(NCCCN2CCOCC2)nc(SCCCCCC)n1` [S6S16 D8] was tested, and the “Absolute DNA transfection efficiency in HEK293 cells” value (“Absolute DNA transfection efficiency” for short) was 0.0%.
With `CCCCCCCCCCCCCCCCSc1nc(NCCCN2CCN(C)CC2)nc(SCCCCCC)n1` [S6S16 D9] the “Absolute DNA transfection efficiency” value was 3.9%.
`CCCCCCCCCCCCCCCCSc1nc(NCC2CCN(C)CC2)nc(SCCCCCC)n1` [S6S16 D10] was tested, and the “Absolute DNA transfection efficiency” value was 37.6%.
`CCCCCCCCCCCCCCCCCCSc1nc(NCCN(C)C)nc(SCCCCCC)n1` [S6S18 D1] was tested, and the “Absolute DNA transfection efficiency” value was 9.8%.
`CCCCCCCCCCCCCCCCCCSc1nc(NCCN2CCOCC2)nc(SCCCCCC)n1` [S6S18 D2] was tested, and the “Absolute DNA transfection efficiency” value was 8.1%.
With `CCCCCCCCCCCCCCCCCCSc1nc(NCCN2CCCC2)nc(SCCCCCC)n1` [S6S18 D3] the “Absolute DNA transfection efficiency” value was 13.8%.
`CCCCCCCCCCCCCCCCCCSc1nc(NCCN2CCCCC2)nc(SCCCCCC)n1` [S6S18 D4] was tested, and the “Absolute DNA transfection efficiency” value was 10.4%.
`CCCCCCCCCCCCCCCCCCSc1nc(NCCN2CCN(C)CC2)nc(SCCCCCC)n1` [S6S18 D5] was tested, and the “Absolute DNA transfection efficiency” value was 15.1%.
`CCCCCCCCCCCCCCCCCCSc1nc(NCCCN(C)C)nc(SCCCCCC)n1` [S6S18 D6] was tested, and the “Absolute DNA transfection efficiency” value was 0.0%.
With `CCCCCCCCCCCCCCCCCCSc1nc(NCCN(CC)CC)nc(SCCCCCC)n1` [S6S18 D7] the “Absolute DNA transfection efficiency” value was 6.4%.
`CCCCCCCCCCCCCCCCCCSc1nc(NCCCN2CCOCC2)nc(SCCCCCC)n1` [S6S18 D8] was tested, and the “Absolute DNA transfection efficiency” value was 15.9%.
For `CCCCCCCCCCCCCCCCCCSc1nc(NCCCN2CCN(C)CC2)nc(SCCCCCC)n1` [S6S18 D9], the “Absolute DNA transfection efficiency” value was 8.7%.
`CCCCCCCCCCCCCCCCCCSc1nc(NCC2CCN(C)CC2)nc(SCCCCCC)n1` [S6S18 D10] was tested, and the “Absolute DNA transfection efficiency” value was 34.7%.
For `CCCCCCCCCCCCN(CCCCCCCCCCCC)c1nc(NCCN(C)C)nc(SCCCCCC)n1` [S6^2N12 D1], the “Absolute DNA transfection efficiency” value was 0.4%.
With `CCCCCCCCCCCCN(CCCCCCCCCCCC)c1nc(NCCN2CCOCC2)nc(SCCCCCC)n1` [S6^2N12 D2] the “Absolute DNA transfection efficiency” value was 0.0%.
In the case of `CCCCCCCCCCCCN(CCCCCCCCCCCC)c1nc(NCCN2CCCC2)nc(SCCCCCC)n1` [S6^2N12 D3], the “Absolute DNA transfection efficiency” value is reported as 0.1%.
In the case of `CCCCCCCCCCCCN(CCCCCCCCCCCC)c1nc(NCCN2CCCCC2)nc(SCCCCCC)n1` [S6^2N12 D4], the “Absolute DNA transfection efficiency” value is reported as 0.1%.
`CCCCCCCCCCCCN(CCCCCCCCCCCC)c1nc(NCCN2CCN(C)CC2)nc(SCCCCCC)n1` [S6^2N12 D5] was tested, and the “Absolute DNA transfection efficiency” value was 0.0%.
With `CCCCCCCCCCCCN(CCCCCCCCCCCC)c1nc(NCCCN(C)C)nc(SCCCCCC)n1` [S6^2N12 D6] the “Absolute DNA transfection efficiency” value was 0.2%.
For `CCCCCCCCCCCCN(CCCCCCCCCCCC)c1nc(NCCN(CC)CC)nc(SCCCCCC)n1` [S6^2N12 D7], the “Absolute DNA transfection efficiency” value was 0.3%.
In the case of `CCCCCCCCCCCCN(CCCCCCCCCCCC)c1nc(NCCCN2CCOCC2)nc(SCCCCCC)n1` [S6^2N12 D8], the “Absolute DNA transfection efficiency” value is reported as 0.0%.
With `CCCCCCCCCCCCN(CCCCCCCCCCCC)c1nc(NCCCN2CCN(C)CC2)nc(SCCCCCC)n1` [S6^2N12 D9] the “Absolute DNA transfection efficiency” value was 0.4%.
With `CCCCCCCCCCCCN(CCCCCCCCCCCC)c1nc(NCC2CCN(C)CC2)nc(SCCCCCC)n1` [S6^2N12 D10] the “Absolute DNA transfection efficiency” value was 0.0%.
`CCCCCCCSc1nc(NCCCCCC)nc(NCCN(C)C)n1` [S7N6 D1] was tested, and the “Absolute DNA transfection efficiency” value was 17.6%.
In the case of `CCCCCCCSc1nc(NCCCCCC)nc(NCCN2CCOCC2)n1` [S7N6 D2], the “Absolute DNA transfection efficiency” value is reported as 1.8%.
In the case of `CCCCCCCSc1nc(NCCCCCC)nc(NCCN2CCCC2)n1` [S7N6 D3], the “Absolute DNA transfection efficiency” value is reported as 34.7%.
In the case of `CCCCCCCSc1nc(NCCCCCC)nc(NCCN2CCCCC2)n1` [S7N6 D4], the “Absolute DNA transfection efficiency” value is reported as 8.7%.
`CCCCCCCSc1nc(NCCCCCC)nc(NCCN2CCN(C)CC2)n1` [S7N6 D5] was tested, and the “Absolute DNA transfection efficiency” value was 28.5%.
`CCCCCCCSc1nc(NCCCCCC)nc(NCCCN(C)C)n1` [S7N6 D6] was tested, and the “Absolute DNA transfection efficiency” value was 27.2%.
With `CCCCCCCSc1nc(NCCCCCC)nc(NCCN(CC)CC)n1` [S7N6 D7] the “Absolute DNA transfection efficiency” value was 11.2%.
For `CCCCCCCSc1nc(NCCCCCC)nc(NCCCN2CCOCC2)n1` [S7N6 D8], the “Absolute DNA transfection efficiency” value was 4.7%.
`CCCCCCCSc1nc(NCCCCCC)nc(NCCCN2CCN(C)CC2)n1` [S7N6 D9] was tested, and the “Absolute DNA transfection efficiency” value was 20.3%.
With `CCCCCCCSc1nc(NCCCCCC)nc(NCC2CCN(C)CC2)n1` [S7N6 D10] the “Absolute DNA transfection efficiency” value was 6.3%.
In the case of `CCCCCCCNc1nc(NCCN(C)C)nc(SCCCCCCC)n1` [S7N7 D1], the “Absolute DNA transfection efficiency” value is reported as 23.6%.
In the case of `CCCCCCCNc1nc(NCCN2CCOCC2)nc(SCCCCCCC)n1` [S7N7 D2], the “Absolute DNA transfection efficiency” value is reported as 2.5%.
With `CCCCCCCNc1nc(NCCN2CCCC2)nc(SCCCCCCC)n1` [S7N7 D3] the “Absolute DNA transfection efficiency” value was 9.2%.
`CCCCCCCNc1nc(NCCN2CCCCC2)nc(SCCCCCCC)n1` [S7N7 D4] was tested, and the “Absolute DNA transfection efficiency” value was 11.3%.
For `CCCCCCCNc1nc(NCCN2CCN(C)CC2)nc(SCCCCCCC)n1` [S7N7 D5], the “Absolute DNA transfection efficiency” value was 33.5%.
In the case of `CCCCCCCNc1nc(NCCCN(C)C)nc(SCCCCCCC)n1` [S7N7 D6], the “Absolute DNA transfection efficiency” value is reported as 33.5%.
For `CCCCCCCNc1nc(NCCN(CC)CC)nc(SCCCCCCC)n1` [S7N7 D7], the “Absolute DNA transfection efficiency” value was 11.4%.
With `CCCCCCCNc1nc(NCCCN2CCOCC2)nc(SCCCCCCC)n1` [S7N7 D8] the “Absolute DNA transfection efficiency” value was 5.3%.
In the case of `CCCCCCCNc1nc(NCCCN2CCN(C)CC2)nc(SCCCCCCC)n1` [S7N7 D9], the “Absolute DNA transfection efficiency” value is reported as 10.9%.
For `CCCCCCCNc1nc(NCC2CCN(C)CC2)nc(SCCCCCCC)n1` [S7N7 D10], the “Absolute DNA transfection efficiency” value was 8.6%.
`CCCCCCCCNc1nc(NCCN(C)C)nc(SCCCCCCC)n1` [S7N8 D1] was tested, and the “Absolute DNA transfection efficiency” value was 15.6%.
With `CCCCCCCCNc1nc(NCCN2CCOCC2)nc(SCCCCCCC)n1` [S7N8 D2] the “Absolute DNA transfection efficiency” value was 2.7%.
`CCCCCCCCNc1nc(NCCN2CCCC2)nc(SCCCCCCC)n1` [S7N8 D3] was tested, and the “Absolute DNA transfection efficiency” value was 9.3%.
`CCCCCCCCNc1nc(NCCN2CCCCC2)nc(SCCCCCCC)n1` [S7N8 D4] was tested, and the “Absolute DNA transfection efficiency” value was 15.5%.
In the case of `CCCCCCCCNc1nc(NCCN2CCN(C)CC2)nc(SCCCCCCC)n1` [S7N8 D5], the “Absolute DNA transfection efficiency” value is reported as 22.1%.
For `CCCCCCCCNc1nc(NCCCN(C)C)nc(SCCCCCCC)n1` [S7N8 D6], the “Absolute DNA transfection efficiency” value was 22.3%.
In the case of `CCCCCCCCNc1nc(NCCN(CC)CC)nc(SCCCCCCC)n1` [S7N8 D7], the “Absolute DNA transfection efficiency” value is reported as 26.8%.
`CCCCCCCCNc1nc(NCCCN2CCOCC2)nc(SCCCCCCC)n1` [S7N8 D8] was tested, and the “Absolute DNA transfection efficiency” value was 2.7%.
`CCCCCCCCNc1nc(NCCCN2CCN(C)CC2)nc(SCCCCCCC)n1` [S7N8 D9] was tested, and the “Absolute DNA transfection efficiency” value was 14.9%.
In the case of `CCCCCCCCNc1nc(NCC2CCN(C)CC2)nc(SCCCCCCC)n1` [S7N8 D10], the “Absolute DNA transfection efficiency” value is reported as 9.5%.
In the case of `CCCCCCCCCNc1nc(NCCN(C)C)nc(SCCCCCCC)n1` [S7N9 D1], the “Absolute DNA transfection efficiency” value is reported as 28.8%.
With `CCCCCCCCCNc1nc(NCCN2CCOCC2)nc(SCCCCCCC)n1` [S7N9 D2] the “Absolute DNA transfection efficiency” value was 13.9%.
For `CCCCCCCCCNc1nc(NCCN2CCCC2)nc(SCCCCCCC)n1` [S7N9 D3], the “Absolute DNA transfection efficiency” value was 12.3%.
For `CCCCCCCCCNc1nc(NCCN2CCCCC2)nc(SCCCCCCC)n1` [S7N9 D4], the “Absolute DNA transfection efficiency” value was 13.0%.
